Laboratory results reported in ChEMBL document CHEMBL1147978, “Small molecule inhibitors of a glycoside hydrolase attenuate inducible AmpC-mediated beta-lactam resistance” (J Biol Chem, 2007).
pIC50: −log10 of the molar value. Values after ≈ are worked out from the molar mass of the structure shown.

Tests used:
[1] = Inhibition of bovine family 20 beta-hexosaminidase; design: species or system Bos taurus
[2] = biological target: T1, Beta-hexosaminidase (Vibrio cholerae serotype O1 (strain ATCC 39315 / El Tor Inaba N16961)) (UniProt Q9KU37); assay: Inhibition of Vibrio cholerae NagZ
T1 sequence (whole entry): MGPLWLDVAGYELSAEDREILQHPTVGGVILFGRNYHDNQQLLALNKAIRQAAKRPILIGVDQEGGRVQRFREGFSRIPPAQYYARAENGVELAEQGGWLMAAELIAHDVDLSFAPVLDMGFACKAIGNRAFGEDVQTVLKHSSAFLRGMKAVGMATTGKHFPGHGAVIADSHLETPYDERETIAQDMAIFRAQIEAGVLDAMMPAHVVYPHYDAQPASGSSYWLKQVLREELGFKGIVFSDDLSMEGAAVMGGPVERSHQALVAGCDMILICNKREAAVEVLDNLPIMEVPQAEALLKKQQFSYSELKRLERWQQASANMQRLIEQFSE

[3] = biological target: Protein O-GlcNAcase (Homo sapiens) (UniProt O60502); assay: Inhibition of human family 84 O-GLcNAcase
[4] = Ratio of human 84 O-GLcNAcase to Vibrio cholerae NagZ
Homo sapiens = species on record: Homo sapiens; assay: Inhibition of human family 20 beta-hexosaminidase
[5] = Selectivity for Vibrio cholerae NagZ over human family 84 O-GLcNAcas
[6] = Selectivity for Vibrio cholerae NagZ over human family 20 beta-hexosaminidase
Escherichia coli [7] = assay: Antimicrobial activity against ampD deficient Escherichia coli transfected with pCF1 in medium containing EtbuPUG by agar diffusion assay; format: functional
Escherichia coli [8] = assay: Antimicrobial activity against wild type Escherichia coli transfected with pCF1 in medium containing EtbuPUG by agar diffusion assay; format: functional
Escherichia coli [9] = assay: Antimicrobial activity against ampD deficient Escherichia coli transfected with pCF1 by serial dilution method; format: functional
Escherichia coli [10] = assay: Antimicrobial activity against ampD deficient Escherichia coli transfected with pCF1 by agar diffusion assay; format: functional
Escherichia coli [11] = assay: Antimicrobial activity against ampD deficient Escherichia coli transfected with pCF1 in medium containing EtbuPUG by serial dilution method; format: functional
Escherichia coli [12] = assay: Antimicrobial activity against wild type EtbuPUG treated Escherichia coli transfected with pCF1 by serial dilution method; format: functional
Escherichia coli [13] = assay: Antimicrobial activity against ampD deficient Escherichia coli in medium containing EtbuPUG by serial dilution method; format: functional
Escherichia coli [14] = assay: Antimicrobial activity against ampD deficient Escherichia coli by serial dilution method; format: functional
Escherichia coli [15] = assay: Antimicrobial activity against wild type Escherichia coli transfected with pCF1 by agar diffusion assay; format: functional
Escherichia coli [16] = assay: Antimicrobial activity against wild type Escherichia coli by serial dilution method; format: functional
Escherichia coli [17] = assay: Antimicrobial activity against wild type Escherichia coli in medium containing EtbuPUG by serial dilution method; format: functional
Escherichia coli [18] = assay: Antimicrobial activity against wild type Escherichia coli transfected with pCF1 by serial dilution method

Sequence of Protein O-GlcNAcase (Homo sapiens) (O60502 whole entry, looked up): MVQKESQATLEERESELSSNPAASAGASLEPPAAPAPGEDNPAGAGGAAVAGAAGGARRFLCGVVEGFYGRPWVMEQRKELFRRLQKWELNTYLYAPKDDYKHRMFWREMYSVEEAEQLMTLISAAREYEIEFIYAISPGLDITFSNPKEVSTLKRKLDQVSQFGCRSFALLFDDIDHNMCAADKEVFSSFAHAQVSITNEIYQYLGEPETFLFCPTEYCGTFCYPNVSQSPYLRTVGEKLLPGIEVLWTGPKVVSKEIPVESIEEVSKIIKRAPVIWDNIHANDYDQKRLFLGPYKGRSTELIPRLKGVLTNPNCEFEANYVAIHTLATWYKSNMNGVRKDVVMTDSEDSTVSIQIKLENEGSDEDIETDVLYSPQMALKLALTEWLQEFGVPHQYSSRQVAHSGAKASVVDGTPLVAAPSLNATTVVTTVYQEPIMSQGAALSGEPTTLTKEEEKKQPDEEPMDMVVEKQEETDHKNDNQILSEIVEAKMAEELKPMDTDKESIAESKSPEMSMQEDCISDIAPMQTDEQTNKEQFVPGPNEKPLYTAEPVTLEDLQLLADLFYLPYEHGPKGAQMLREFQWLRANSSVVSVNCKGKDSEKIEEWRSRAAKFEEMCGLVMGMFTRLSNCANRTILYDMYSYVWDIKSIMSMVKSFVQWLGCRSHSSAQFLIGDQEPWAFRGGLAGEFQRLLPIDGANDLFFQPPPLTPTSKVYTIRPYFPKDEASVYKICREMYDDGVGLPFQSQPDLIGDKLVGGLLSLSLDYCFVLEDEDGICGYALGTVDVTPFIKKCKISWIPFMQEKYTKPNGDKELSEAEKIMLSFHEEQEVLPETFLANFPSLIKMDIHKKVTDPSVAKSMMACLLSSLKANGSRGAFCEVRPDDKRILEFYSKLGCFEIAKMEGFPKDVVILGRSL

Question: With `CC(=O)N[C@H]1c2nc(CC(=O)O)cn2[C@H](CO)[C@@H](O)[C@@H]1O` as the compound, how does the pIC50 [1] read?
Answer: 8.28

Question: What about the Kinact [2] of the same compound?
Answer: 15 µM

Question: And the Ki [3]?
Answer: 0.43 µM

Question: And the Selectivity ratio [4]?
Answer: 0.03

Question: With `CC(=O)N[C@H]1/C(=N/O)O[C@H](CO)[C@@H](O)[C@@H]1O` as the compound, how does the Kinact [2] read?
Answer: 0.22 µM

Question: What about the Ki [3] of the same compound?
Answer: 6.4 µM

Question: What about the Selectivity ratio [4] of the same compound?
Answer: 29

Question: Which results are given for `CC(=O)N[C@H]1/C(=N/OC(=O)Nc2ccccc2)O[C@H](CO)[C@@H](O)[C@@H]1O`?
Answer: Ki (Homo sapiens): 0.036 µM; Kinact [2]: 0.048 µM

Question: Which results are given for `CC(C)C(=O)N[C@H]1/C(=N/OC(=O)Nc2ccccc2)O[C@H](CO)[C@@H](O)[C@@H]1O`?
Answer: Ki (Homo sapiens): 20 µM; Kinact [2]: 0.51 µM; Ki [3]: 9 µM; Selectivity ratio [4]: 18

Question: Which Ki (Homo sapiens) does the source give for `CC(C)CC(=O)N[C@H]1/C(=N/OC(=O)Nc2ccccc2)O[C@H](CO)[C@@H](O)[C@@H]1O` here?
Answer: > 1200 µM

Question: And the Kinact [2]?
Answer: 15 µM

Question: What about the Ki [3] of the same compound?
Answer: 190 µM

Question: What about the Selectivity ratio [4] of the same compound?
Answer: 13

Question: For `CCC(=O)N[C@H]1/C(=N/OC(=O)Nc2ccccc2)O[C@H](CO)[C@@H](O)[C@@H]1O`, which Ki (Homo sapiens) is on record?
Answer: 1.2 µM

Question: What about the Kinact [2] of the same compound?
Answer: 0.16 µM

Question: What about the Ki [3] of the same compound?
Answer: 1.2 µM

Question: And the Selectivity ratio [4]?
Answer: 7.5

Question: With `CCC(CC)C(=O)N[C@H]1/C(=N/OC(=O)Nc2ccccc2)O[C@H](CO)[C@@H](O)[C@@H]1O` as the compound, how does the Selectivity ratio [5] read?
Answer: 100

Question: And the Ki (Homo sapiens)?
Answer: > 3000 µM

Question: What about the Kinact [2] of the same compound?
Answer: 3.1 µM

Question: What about the Selectivity ratio [6] of the same compound?
Answer: 100

Question: What about the Ki [3] of the same compound?
Answer: 337 µM

Question: What about the Selectivity ratio [4] of the same compound?
Answer: 109

Question: With `CCCC(=O)N[C@H]1/C(=N/OC(=O)Nc2ccccc2)O[C@H](CO)[C@@H](O)[C@@H]1O` as the compound, how does the Ki (Homo sapiens) read?
Answer: 26 µM

Question: What about the Kinact [2] of the same compound?
Answer: 0.26 µM

Question: What about the Ki [3] of the same compound?
Answer: 40 µM

Question: Which results are given for `CCCCC(=O)N[C@H]1/C(=N/OC(=O)Nc2ccccc2)O[C@H](CO)[C@@H](O)[C@@H]1O`?
Answer: Ki (Homo sapiens): 220 µM; Kinact [2]: 0.33 µM; Ki [3]: 40 µM; Selectivity ratio [4]: 121

Question: Which Ki (Homo sapiens) does the source give for `CCCCCC(=O)N[C@H]1/C(=N/OC(=O)Nc2ccccc2)O[C@H](CO)[C@@H](O)[C@@H]1O` here?
Answer: > 900 µM

Question: What about the Kinact [2] of the same compound?
Answer: 6.5 µM

Question: And the Ki [3]?
Answer: 220 µM

Question: And the Selectivity ratio [4]?
Answer: 33

Question: Which results are given for `CO/N=C(\C(=O)N[C@@H]1C(=O)N2C(C(=O)O)=C(COC(C)=O)CS[C@H]12)c1csc(N)n1` [CEFOTAXIME]?
Answer: inhibition zone (IZ) (Escherichia coli [7]): 9 mm; inhibition zone (IZ) (Escherichia coli [8]): 12.9 mm; MIC (Escherichia coli [9]): 128 µg/mL (≈ 281 µM); inhibition zone (IZ) (Escherichia coli [10]): 7.1 mm; MIC (Escherichia coli [11]): 64 µg/mL (≈ 141 µM); MIC (Escherichia coli [12]): 16 µg/mL (≈ 35.1 µM); MIC (Escherichia coli [13]): < 2 µg/mL; MIC (Escherichia coli [14]): < 2 µg/mL; inhibition zone (IZ) (Escherichia coli [15]): 10.3 mm; MIC (Escherichia coli [16]): 1 µg/mL (≈ 2.2 µM); MIC (Escherichia coli [17]): 1 µg/mL (≈ 2.2 µM); MIC (Escherichia coli [18]): 64 µg/mL (≈ 141 µM)

Question: With `CO[C@@]1(NC(=O)Cc2cccs2)C(=O)N2C(C(=O)O)=C(COC(N)=O)CS[C@@H]21` [CEFOXITIN] as the compound, how does the “inhibition zone (IZ)” value (Escherichia coli [7]) read?
Answer: 10.8 mm

Question: And the “inhibition zone (IZ)” value (Escherichia coli [8])?
Answer: 10.9 mm

Question: And the MIC (Escherichia coli [9])?
Answer: 512 µg/mL (≈ 1200 µM)

Question: What about the “inhibition zone (IZ)” value (Escherichia coli [10]) of the same compound?
Answer: 8.8 mm

Question: And the MIC (Escherichia coli [11])?
Answer: 256 µg/mL (≈ 599 µM)

Question: And the MIC (Escherichia coli [12])?
Answer: 32 µg/mL (≈ 74.9 µM)

Question: What about the MIC (Escherichia coli [13]) of the same compound?
Answer: 2 µg/mL (≈ 4.68 µM)

Question: And the MIC (Escherichia coli [14])?
Answer: 2 µg/mL (≈ 4.68 µM)

Question: What about the “inhibition zone (IZ)” value (Escherichia coli [15]) of the same compound?
Answer: 9.3 mm

Question: And the MIC (Escherichia coli [16])?
Answer: 1 µg/mL (≈ 2.34 µM)

Question: What about the MIC (Escherichia coli [17]) of the same compound?
Answer: 1 µg/mL (≈ 2.34 µM)

Question: And the MIC (Escherichia coli [18])?
Answer: 64 µg/mL (≈ 150 µM)

Question: With `CC(C)(O/N=C(\C(=O)N[C@@H]1C(=O)N2C(C(=O)[O-])=C(C[n+]3ccccc3)CS[C@H]12)c1csc(N)n1)C(=O)O` [CEFTAZIDIME] as the compound, how does the MIC (Escherichia coli [9]) read?
Answer: 256 µg/mL (≈ 468 µM)

Question: And the MIC (Escherichia coli [11])?
Answer: 64 µg/mL (≈ 117 µM)

Question: What about the MIC (Escherichia coli [12]) of the same compound?
Answer: 32 µg/mL (≈ 58.5 µM)

Question: What about the MIC (Escherichia coli [13]) of the same compound?
Answer: < 2 µg/mL

Question: What about the MIC (Escherichia coli [14]) of the same compound?
Answer: < 2 µg/mL

Question: And the MIC (Escherichia coli [16])?
Answer: 1 µg/mL (≈ 1.83 µM)

Question: And the MIC (Escherichia coli [17])?
Answer: 1 µg/mL (≈ 1.83 µM)

Question: And the MIC (Escherichia coli [18])?
Answer: 64 µg/mL (≈ 117 µM)

Question: For `CO/N=C(\C(=O)N[C@@H]1C(=O)N2C(C(=O)O)=C(CSc3nc(=O)c(O)nn3C)CS[C@H]12)c1csc(N)n1` [CEFTRIAXONE], which MIC (Escherichia coli [9]) is on record?
Answer: 128 µg/mL (≈ 231 µM)

Question: And the MIC (Escherichia coli [11])?
Answer: 32 µg/mL (≈ 57.7 µM)

Question: And the MIC (Escherichia coli [12])?
Answer: 16 µg/mL (≈ 28.9 µM)

Question: What about the MIC (Escherichia coli [13]) of the same compound?
Answer: < 2 µg/mL

Question: And the MIC (Escherichia coli [14])?
Answer: < 2 µg/mL

Question: What about the MIC (Escherichia coli [16]) of the same compound?
Answer: < 1 µg/mL

Question: And the MIC (Escherichia coli [17])?
Answer: < 1 µg/mL

Question: What about the MIC (Escherichia coli [18]) of the same compound?
Answer: 32 µg/mL (≈ 57.7 µM)
